Results as given in patent publication US20070196349A1, “Whitening composition containing reduced coenzyme Q” (KANEKA CORPORATION, priority 2004, published 2007).
Marks after values point to notes of the source that are not given here.

Experiments:
[1] = test system: Normal human dermal fibroblasts (NHDF); experiment: Effect for protecting cells from oxidation stress in dermal fibroblasts (cellular ATP level after hydrogen peroxide); format: cell-based; settings: for ATP level: 1 mM hydrogen peroxide for 15 minutes
Description: Normal human dermal fibroblasts (NHDF: product of Kurabo Industries, Ltd.) were incubated in the basal medium Medium 106S (product of Kurabo Industries, Ltd.) supplemented with 2% fetal bovine serum, 10 μg/ml of heparin, 1 μg/ml of hydrocortisone, 10 ng/ml of human recombinant epidermal growth factor, and 3 ng/ml of human recombinant basic fibroblast growth factor under conditions of 37° C. and 5% CO2. After confluence, the cells were seeded onto a 96-well microplate (2.0×10^3 cells/well). In seeding, Medium 106S (product of Kurabo Industries, Ltd.) supplemented with 2% fetal bovine serum, 10 μg/ml of heparin, and 1 μg/ml of hydrocortisone was used. After 24 hours culture, the medium was exchanged to the same medium supplemented with a sample specimen, and after 24 hours, it was exchanged to Medium 106S (product of Kurabo Industries, Ltd.) supplemented with 2% fetal bovine serum, 10 μg/ml of heparin, 1 μg/ml of hydrocortisone, 7.5 μg/ml of coenzyme A, and a sample specimen in order to further culture for 48 hours. After that, the medium was removed to be exchange to the medium supplemented with 1 mM hydrogen peroxide (product of Wako Pure Chemical Industries), and then the cells were incubated for 15 minutes followed by rinsing with PBS, and cellular ATP level was determined using ATP assay kit (product of PerkinElmer) for comparison. The parametrical multiple comparison (Turkey type) was carried out in statistical processing, and the symbol “†” refers that the percentage of risk is less than 5% in comparison with the control group containing solvent only.

[2] = test system: Normal human dermal fibroblasts (NHDF); experiment: Cell activation-promoting effect in dermal fibroblasts (cellular ATP level); format: cell-based; settings: for ATP level: 48 hours culture with sample
Description: Normal human dermal fibroblasts (NHDF: product of Kurabo Industries, Ltd.) were incubated in the basal medium Medium 106S (product of Kurabo Industries, Ltd.) supplemented with 2% fetal bovine serum, 10 μg/ml of heparin, 1 μg/ml of hydrocortisone, 10 ng/ml of human recombinant epidermal growth factor, and 3 ng/ml of human recombinant basic fibroblast growth factor under conditions of 37° C. and 5% CO2. After confluence, the cells were seeded onto a 96-well microplate (2.0×10^3 cells/well). In seeding, Medium 106S (product of Kurabo Industries, Ltd.) supplemented with 2% fetal bovine serum, 10 μg/ml of heparin, and 1 μg/ml of hydrocortisone was used. After 24 hours culture, the medium was exchanged to the same medium supplemented with a sample specimen in order to further culture for 48 hours. After that, the medium was removed and then the cells were rinsed with PBS, and cellular ATP level was determined using ATP assay kit (product of PerkinElmer) for comparison. The parametrical multiple comparison (Turkey type) was carried out in statistical processing, and the symbol “*” refers that the percentage of risk is less than 5%, and the symbol “**” refers that the percentage of risk is less than 1%, in comparison with the control group containing solvent only. In addition, the symbol “†” at the numerical value refers that the percentage of risk is less than 5% in comparison with oxidized coenzyme Q10.

[3] = test system: brown guinea pigs; experiment: Inhibitory effect on pigmentation due to ultraviolet radiation; format: in vivo, guinea pig; settings: average of scores (Table 1) of six brown guinea pigs, #=(L1−L0)−(L′1−L′0), sample vs medium, UVB-irradiated dorsal skin, polyethylene glycol ointment containing 10 parts by weight of reduced coenzyme Q10 applied once a day for one month
Description: The dorsal hair of six brown guinea pigs was carefully shaved with a clipper or shaver, and the shaved dorsal skin of each guinea pig was irradiated with ultraviolet beams (UVB: wavelength 250 to 350 nm) in the minimum erythema dose at two square portions of 2 cm′2 cm on the right and left of the dorsal median. The ultraviolet irradiation was performed once every other day for three days to induce erythema. Also, a medium and a sample were continuously applied to the respective irradiated portions (erythema portions) once a day for one month to examine the inhibitory action on pigmentation. As the sample, a polyethylene glycol ointment containing 10 parts by weight of reduced coenzyme Q10 was used. As the medium, only polyethylene glycol was used. Evaluation was performed by measurement with a color-difference meter, and an L value was calculated from the observed Munsell value.
Namely, DL (change with time) of the medium-applied portion was subtracted from DL (change with time) of the opposite sample-applied portion to obtain a value (#) according to the following equation: #=(L1−L0)−(L′1−L′0)
L0: Test portion before application of the sample
L′0: Test portion before application of the medium
L1: Sample-applied test portion one month after continuous application
L′1: Medium-applied test portion one month after continuous application […]

Row | SMILES | ATP level ([1]; 8.13 μg/ml) [nM] | ATP level ([1]; 100 μg/ml) [nM] | ATP level ([2]; 0.12 μg/ml) | ATP level ([2]; 0.98 μg/ml) | cellular ATP level compared with the solvent control ([2]; result in words) | cellular ATP level compared with the solvent control ([1]; 100 μg/ml, hydrogen peroxide oxidation stress, result in words) | cellular ATP level, reduced compared with oxidized coenzyme Q10 ([2]; result in words) | Average evaluation score [3] | Average evaluation score ([3]; listed as reduced coenzyme Q10)
1 | COC1=C(OC)C(=O)C(C/C=C(\C)CC/C=C(\C)CC/C=C(\C)CC/C=C(\C)CC/C=C(\C)CC/C=C(\C)CC/C=C(\C)CC/C=C(\C)CC/C=C(\C)CCC=C(C)C)=C(C)C1=O [Oxidized coenzyme Q10, oxidized coenzyme Q10, reference compound] | 82.29 ± 9.08 | 103.41 ± 1.17 | 183.23 ± 62.70 nM | 224.84 ± 43.55* nM | significantly increase the cellular ATP level |  |  |  | 
2 | COc1c(O)c(C)c(C/C=C(\C)CC/C=C(\C)CC/C=C(\C)CC/C=C(\C)CC/C=C(\C)CC/C=C(\C)CC/C=C(\C)CC/C=C(\C)CC/C=C(\C)CCC=C(C)C)c(O)c1OC [Reduced coenzyme Q10, reduced coenzyme Q10] | 73.93 ± 4.96 | 112.47 ± 5.45 | 277.21 ± 46.02**† nM | 267.24 ± 20.72** nM | significantly increase the cellular ATP level | significantly increase the cellular ATP level | significantly increase the cellular ATP level | 2.17 | 2 (0 ≦ # < 0.5)
